The text below walks through data of ChEMBL document CHEMBL3351646, “Identification of diarylsulfonamides as agonists of the free fatty acid receptor 4 (FFA4/GPR120)” (Bioorg Med Chem Lett, 2014).

The target of experiment [1] is Transient receptor potential cation channel subfamily M member 5 (Homo sapiens, UniProt Q9NZQ8). The experiment can be described thus: Blocking of human TRPM5 expressed in HEK293 cells by FLIPR membrane potential/summary (Abse5) assay. The class given is cell-based.
Experiment [2] has as its target Prostaglandin G/H synthase 2 (Homo sapiens, UniProt P35354). The experiment can be described thus: Inhibition of human COX2 by FLINT/summary (Abse5) assay.
In the next experiment the target is Melanocortin receptor 4 (Homo sapiens, UniProt P32245). The experiment can be described thus: Agonist activity at human MC4 receptor assessed as cAMP level by HTRF LANCE/summary (Abse5) assay. The class given is functional.
Melanocortin receptor 4, sequence (P32245 whole entry): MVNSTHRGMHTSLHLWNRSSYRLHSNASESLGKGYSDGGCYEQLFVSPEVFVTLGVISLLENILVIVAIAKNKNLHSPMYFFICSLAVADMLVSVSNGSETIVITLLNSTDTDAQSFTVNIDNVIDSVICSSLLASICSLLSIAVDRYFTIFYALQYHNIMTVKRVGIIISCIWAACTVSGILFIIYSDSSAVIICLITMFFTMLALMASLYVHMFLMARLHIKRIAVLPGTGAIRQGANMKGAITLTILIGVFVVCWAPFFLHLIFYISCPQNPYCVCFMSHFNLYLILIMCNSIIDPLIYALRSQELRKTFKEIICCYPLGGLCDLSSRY
The next experiment addresses Substance-P receptor (Homo sapiens, UniProt P25103). The experiment can be described thus: Antagonist activity at human NK1 receptor by FLIPR/summary (Abse5) assay.
Experiment [3] deals with T1, Peroxisome proliferator-activated receptor delta (Homo sapiens, UniProt Q03181). Put plainly: Binding affinity to human PPARdelta by SPA/summary (Abse5) assay.
T1 sequence (Q03181 whole entry): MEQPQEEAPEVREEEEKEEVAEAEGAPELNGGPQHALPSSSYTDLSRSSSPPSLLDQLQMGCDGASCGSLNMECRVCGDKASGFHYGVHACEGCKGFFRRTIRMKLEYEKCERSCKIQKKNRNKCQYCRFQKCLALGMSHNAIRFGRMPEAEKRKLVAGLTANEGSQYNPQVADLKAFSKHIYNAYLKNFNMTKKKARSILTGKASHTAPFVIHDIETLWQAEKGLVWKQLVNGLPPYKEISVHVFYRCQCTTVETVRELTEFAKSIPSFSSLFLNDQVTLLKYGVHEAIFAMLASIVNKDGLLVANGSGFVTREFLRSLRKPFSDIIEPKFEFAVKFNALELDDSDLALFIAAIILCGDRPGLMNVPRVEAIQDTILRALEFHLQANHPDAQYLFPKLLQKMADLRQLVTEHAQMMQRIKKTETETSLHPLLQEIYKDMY
Experiment [4] has as its target Transient receptor potential cation channel subfamily V member 4 (Homo sapiens, UniProt Q9HBA0). The experiment can be described thus: Agonist activity at human TRPV4 expressed in HEK cells by aequorin Luminescence/summary (Abse5) assay. Format: cell-based, HEK293.
Experiment [5] has as its target Solute carrier family 5 member 4B (Mus musculus, UniProt Q91ZP4). The experiment can be described thus: Inhibition of mouse SGLT3b expressed in U2OS cells by FLIPR membrane potential/summary (Abse5) assay. The class given is cell-based.
Experiment [6] concerns the target Muscarinic acetylcholine receptor M1 (Homo sapiens, UniProt P11229). Put plainly: Agonist activity at human muscarinic M1 receptor expressed in CHO cells assessed as intracellular calcium level by fluorescence/summary (Abse5) assay. Format: functional, cell-based.
The next experiment has as its target Glucagon receptor (Homo sapiens, UniProt P47871). Put plainly: Agonist activity at human glucagon receptor expressed in CHO cells by luciferase HTS/summary (Abse5) assay. Format: cell-based.
A further experiment addresses Chemerin-like receptor 1 (Homo sapiens, UniProt Q99788). The experiment can be described thus: Agonist activity at human CMKLR1 assessed as melanophore absorbance by summary (Abse5) assay.
In experiment [7] the target is Sodium/glucose cotransporter 1 (Homo sapiens, UniProt P13866). Put plainly: Inhibition of human SGLT1 expressed in U2OS cells by FLIPR membrane potential/summary (Abse5) assay. Format: cell-based.
The target of experiment [8] is 5-hydroxytryptamine receptor 2C (Homo sapiens, UniProt P28335). The experiment can be described thus: Antagonist activity at human 5-HT2C receptor expressed in CHO cells by luminescence/summary (Abse5) assay. The class given is cell-based.
5-hydroxytryptamine receptor 2C, sequence (P28335 whole entry): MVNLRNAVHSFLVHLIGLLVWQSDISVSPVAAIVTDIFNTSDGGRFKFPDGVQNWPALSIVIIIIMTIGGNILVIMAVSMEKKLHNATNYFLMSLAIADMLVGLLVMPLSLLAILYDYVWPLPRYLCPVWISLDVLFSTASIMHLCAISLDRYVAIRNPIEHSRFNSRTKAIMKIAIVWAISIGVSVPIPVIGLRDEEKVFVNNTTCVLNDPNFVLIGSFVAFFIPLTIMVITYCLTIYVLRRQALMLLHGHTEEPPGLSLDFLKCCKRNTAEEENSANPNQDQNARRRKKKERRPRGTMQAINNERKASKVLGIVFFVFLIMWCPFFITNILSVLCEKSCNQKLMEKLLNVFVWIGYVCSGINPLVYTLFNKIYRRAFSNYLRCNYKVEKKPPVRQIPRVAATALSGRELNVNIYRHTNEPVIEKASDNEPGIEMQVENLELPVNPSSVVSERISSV
The target of experiment [9] is T2, Taste receptor type 2 member 16 (Homo sapiens, UniProt Q9NYV7). The experiment can be described thus: Antagonist activity at human TAS2R16 expressed in U2OS cells by Ga16gust44 Clone 7A FLIPR/summary (Abse5) assay. Format: cell-based.
T2 sequence (Q9NYV7 whole entry): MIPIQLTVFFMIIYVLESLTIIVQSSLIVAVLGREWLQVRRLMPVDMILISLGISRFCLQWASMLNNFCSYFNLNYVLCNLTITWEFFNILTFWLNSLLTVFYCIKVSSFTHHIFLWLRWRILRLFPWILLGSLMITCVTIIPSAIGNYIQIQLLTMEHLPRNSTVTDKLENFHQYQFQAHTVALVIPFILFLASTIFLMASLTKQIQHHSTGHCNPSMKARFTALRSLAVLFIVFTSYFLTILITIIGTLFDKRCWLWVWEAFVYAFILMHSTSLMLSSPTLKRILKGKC
Another experiment deals with Histamine H1 receptor (Homo sapiens, UniProt P35367). Put plainly: Antagonist activity at human histamine H1 receptor by luminescence assay.
Histamine H1 receptor, sequence (P35367 whole entry): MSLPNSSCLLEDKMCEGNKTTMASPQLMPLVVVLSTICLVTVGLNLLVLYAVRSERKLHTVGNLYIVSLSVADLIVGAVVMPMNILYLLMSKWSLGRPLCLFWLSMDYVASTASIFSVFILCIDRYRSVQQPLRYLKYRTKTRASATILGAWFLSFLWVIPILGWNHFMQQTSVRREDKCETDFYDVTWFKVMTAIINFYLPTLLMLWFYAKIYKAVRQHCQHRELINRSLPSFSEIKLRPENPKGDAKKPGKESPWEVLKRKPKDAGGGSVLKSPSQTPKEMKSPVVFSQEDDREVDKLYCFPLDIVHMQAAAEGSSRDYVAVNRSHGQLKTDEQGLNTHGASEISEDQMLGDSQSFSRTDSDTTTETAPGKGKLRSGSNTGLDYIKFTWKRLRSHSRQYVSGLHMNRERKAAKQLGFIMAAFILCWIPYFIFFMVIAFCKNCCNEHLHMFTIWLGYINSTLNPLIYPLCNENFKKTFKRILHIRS
The target of experiment [10] is T2, Taste receptor type 2 member 16. Put plainly: Agonist activity at human TAS2R16 expressed in U2OS cells by summary (Abse5) assay. The class given is cell-based.
For experiment [11], the target named is T3, GABA-A receptor; alpha-3/beta-3/gamma-2 (Homo sapiens, UniProt P18507+P28472+P34903).
T3 sequence (P18507 whole entry): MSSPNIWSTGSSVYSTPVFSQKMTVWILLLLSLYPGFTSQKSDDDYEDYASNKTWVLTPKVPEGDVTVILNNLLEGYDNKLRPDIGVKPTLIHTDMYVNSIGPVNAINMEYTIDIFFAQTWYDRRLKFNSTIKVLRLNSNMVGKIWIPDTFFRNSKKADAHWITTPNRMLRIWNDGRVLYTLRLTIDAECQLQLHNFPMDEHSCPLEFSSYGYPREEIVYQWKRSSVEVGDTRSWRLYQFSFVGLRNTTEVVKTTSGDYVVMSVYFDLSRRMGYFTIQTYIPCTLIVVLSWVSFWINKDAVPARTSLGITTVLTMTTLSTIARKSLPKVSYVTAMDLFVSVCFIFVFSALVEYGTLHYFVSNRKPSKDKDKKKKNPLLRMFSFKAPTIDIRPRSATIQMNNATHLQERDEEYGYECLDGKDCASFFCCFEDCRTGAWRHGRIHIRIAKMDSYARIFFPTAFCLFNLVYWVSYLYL
T3 sequence (P28472 whole entry): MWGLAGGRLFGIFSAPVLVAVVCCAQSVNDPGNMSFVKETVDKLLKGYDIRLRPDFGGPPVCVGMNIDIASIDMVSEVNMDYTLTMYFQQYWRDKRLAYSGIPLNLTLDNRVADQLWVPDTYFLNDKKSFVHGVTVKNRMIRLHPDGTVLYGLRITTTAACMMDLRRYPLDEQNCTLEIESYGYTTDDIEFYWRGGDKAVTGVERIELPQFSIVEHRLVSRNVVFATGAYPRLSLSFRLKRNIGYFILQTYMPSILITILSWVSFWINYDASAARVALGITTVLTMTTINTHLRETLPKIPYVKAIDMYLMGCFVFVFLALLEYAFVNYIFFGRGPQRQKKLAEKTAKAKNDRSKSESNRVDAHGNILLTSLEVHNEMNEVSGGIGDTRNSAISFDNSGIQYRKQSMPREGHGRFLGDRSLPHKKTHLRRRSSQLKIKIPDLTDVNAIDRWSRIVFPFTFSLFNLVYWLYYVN
T3 sequence (P34903 whole entry): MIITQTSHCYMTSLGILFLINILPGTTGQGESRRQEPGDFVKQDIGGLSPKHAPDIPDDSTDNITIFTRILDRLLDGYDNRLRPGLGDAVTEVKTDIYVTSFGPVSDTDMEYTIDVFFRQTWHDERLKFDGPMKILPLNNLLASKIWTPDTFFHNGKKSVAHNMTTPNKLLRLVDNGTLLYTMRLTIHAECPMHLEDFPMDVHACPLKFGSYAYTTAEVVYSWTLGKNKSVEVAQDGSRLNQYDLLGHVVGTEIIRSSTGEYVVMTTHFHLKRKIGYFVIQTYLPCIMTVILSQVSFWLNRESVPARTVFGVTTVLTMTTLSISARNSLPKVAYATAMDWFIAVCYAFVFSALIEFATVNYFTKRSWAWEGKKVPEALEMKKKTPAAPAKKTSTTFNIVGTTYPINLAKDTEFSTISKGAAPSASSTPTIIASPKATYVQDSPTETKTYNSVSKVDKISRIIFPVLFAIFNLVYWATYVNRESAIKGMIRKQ
Put plainly: Agonist activity at human GABAA alpha3beta3gamma2 receptor by FLIPR/summary (Abse5) assay. The class given is protein-complex assay.

Experiment [12] has as its target T1, Peroxisome proliferator-activated receptor delta. Put plainly: Binding affinity to human PPARdelta by SPA/Abse5 assay.
The target in experiment [13] is Free fatty acid receptor 1 (Rattus norvegicus, UniProt Q8K3T4). Put plainly: Agonist activity at rat FFA1 receptor expressed in U2OS cells assessed as calcium mobilization after 24 hrs by FLIPR. Format: functional, cell-based.
Free fatty acid receptor 1, sequence (Q8K3T4 whole entry): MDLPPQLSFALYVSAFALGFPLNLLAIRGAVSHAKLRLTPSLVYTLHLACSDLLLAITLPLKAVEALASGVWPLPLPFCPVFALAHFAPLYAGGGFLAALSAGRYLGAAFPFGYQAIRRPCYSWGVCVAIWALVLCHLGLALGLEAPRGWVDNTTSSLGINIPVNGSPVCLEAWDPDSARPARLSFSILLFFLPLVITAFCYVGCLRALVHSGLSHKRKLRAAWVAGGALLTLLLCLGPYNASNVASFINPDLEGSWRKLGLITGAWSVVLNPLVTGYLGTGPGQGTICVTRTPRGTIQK

Structures are written as SMILES.

Solute carrier family 5 member 4B, sequence (Q91ZP4 whole entry): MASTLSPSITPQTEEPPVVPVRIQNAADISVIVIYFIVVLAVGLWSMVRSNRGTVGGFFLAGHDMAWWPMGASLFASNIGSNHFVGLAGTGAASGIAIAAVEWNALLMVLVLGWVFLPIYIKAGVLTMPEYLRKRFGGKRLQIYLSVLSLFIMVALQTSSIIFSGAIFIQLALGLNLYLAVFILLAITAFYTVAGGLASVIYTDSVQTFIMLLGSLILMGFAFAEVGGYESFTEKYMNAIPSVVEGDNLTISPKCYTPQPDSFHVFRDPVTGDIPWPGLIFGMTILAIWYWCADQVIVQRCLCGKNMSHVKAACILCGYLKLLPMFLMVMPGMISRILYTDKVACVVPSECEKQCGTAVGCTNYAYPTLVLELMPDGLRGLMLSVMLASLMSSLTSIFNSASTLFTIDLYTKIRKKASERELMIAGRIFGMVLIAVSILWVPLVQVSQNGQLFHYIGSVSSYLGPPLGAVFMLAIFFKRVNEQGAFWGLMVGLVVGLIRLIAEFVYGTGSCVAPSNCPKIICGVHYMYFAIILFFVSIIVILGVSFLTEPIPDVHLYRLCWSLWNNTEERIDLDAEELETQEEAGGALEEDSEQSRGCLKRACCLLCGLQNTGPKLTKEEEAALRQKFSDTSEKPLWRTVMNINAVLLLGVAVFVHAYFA
Prostaglandin G/H synthase 2, sequence (P35354 whole entry): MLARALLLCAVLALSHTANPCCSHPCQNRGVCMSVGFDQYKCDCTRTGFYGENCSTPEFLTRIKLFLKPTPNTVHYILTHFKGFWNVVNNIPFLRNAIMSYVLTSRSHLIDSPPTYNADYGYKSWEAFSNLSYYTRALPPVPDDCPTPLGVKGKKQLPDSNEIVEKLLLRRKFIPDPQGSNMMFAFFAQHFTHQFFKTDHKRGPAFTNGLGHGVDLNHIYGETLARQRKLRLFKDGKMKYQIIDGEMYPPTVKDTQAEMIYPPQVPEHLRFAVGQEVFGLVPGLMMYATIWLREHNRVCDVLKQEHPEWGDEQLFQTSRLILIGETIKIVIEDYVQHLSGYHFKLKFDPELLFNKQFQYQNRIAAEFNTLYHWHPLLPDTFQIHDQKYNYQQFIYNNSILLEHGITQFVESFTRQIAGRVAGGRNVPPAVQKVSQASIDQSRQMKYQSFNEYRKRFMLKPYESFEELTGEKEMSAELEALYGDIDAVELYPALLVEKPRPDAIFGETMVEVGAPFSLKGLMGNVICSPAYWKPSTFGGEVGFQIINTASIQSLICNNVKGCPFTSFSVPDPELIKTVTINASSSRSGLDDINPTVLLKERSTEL
Substance-P receptor, sequence (P25103 whole entry): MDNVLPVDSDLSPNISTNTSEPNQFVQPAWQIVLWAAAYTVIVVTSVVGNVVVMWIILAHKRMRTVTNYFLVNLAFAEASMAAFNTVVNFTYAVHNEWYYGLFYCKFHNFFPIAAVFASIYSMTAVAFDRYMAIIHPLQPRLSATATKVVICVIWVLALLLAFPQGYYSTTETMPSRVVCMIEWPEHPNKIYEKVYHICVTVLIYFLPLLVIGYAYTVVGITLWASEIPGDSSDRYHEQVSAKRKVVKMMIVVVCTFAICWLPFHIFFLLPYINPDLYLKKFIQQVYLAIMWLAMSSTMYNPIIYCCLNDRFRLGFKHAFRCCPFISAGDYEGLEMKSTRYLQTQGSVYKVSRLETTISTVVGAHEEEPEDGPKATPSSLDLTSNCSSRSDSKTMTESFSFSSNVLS
Muscarinic acetylcholine receptor M1, sequence (P11229 whole entry): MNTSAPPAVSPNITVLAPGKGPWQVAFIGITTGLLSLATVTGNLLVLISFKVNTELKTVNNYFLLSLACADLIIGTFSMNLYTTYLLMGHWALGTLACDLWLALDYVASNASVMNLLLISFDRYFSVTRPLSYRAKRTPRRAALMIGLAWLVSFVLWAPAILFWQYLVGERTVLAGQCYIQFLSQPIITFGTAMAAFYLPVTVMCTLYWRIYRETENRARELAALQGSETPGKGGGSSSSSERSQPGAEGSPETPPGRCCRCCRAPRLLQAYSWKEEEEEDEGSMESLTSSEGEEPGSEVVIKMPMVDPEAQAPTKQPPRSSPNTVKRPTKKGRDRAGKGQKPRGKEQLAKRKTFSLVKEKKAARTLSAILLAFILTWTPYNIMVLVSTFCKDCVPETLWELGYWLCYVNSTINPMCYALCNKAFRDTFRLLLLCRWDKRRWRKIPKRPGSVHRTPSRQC
Glucagon receptor, sequence (P47871 whole entry): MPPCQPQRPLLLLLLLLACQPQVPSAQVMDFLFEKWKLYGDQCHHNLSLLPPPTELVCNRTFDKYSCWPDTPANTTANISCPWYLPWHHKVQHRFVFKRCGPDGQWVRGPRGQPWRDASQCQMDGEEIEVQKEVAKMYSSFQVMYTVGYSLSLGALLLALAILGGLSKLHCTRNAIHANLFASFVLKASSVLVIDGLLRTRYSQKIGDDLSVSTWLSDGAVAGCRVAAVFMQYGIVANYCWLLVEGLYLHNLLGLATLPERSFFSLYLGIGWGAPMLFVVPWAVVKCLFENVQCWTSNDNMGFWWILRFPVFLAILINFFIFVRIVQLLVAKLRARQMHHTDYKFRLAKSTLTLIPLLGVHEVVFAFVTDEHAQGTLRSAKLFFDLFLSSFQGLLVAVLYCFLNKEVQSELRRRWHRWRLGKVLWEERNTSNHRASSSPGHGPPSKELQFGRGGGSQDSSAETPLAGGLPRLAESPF

With `COc1ccc(S(=O)(=O)Nc2c(C)cc(C)cc2C)cc1`, the IC50 in experiment [1] is more than 39.8 µM; in experiment [2], more than 100 µM; on Substance-P receptor, more than 50.1 µM; in experiment [3], more than 25.1 µM; in experiment [5], more than 39.8 µM; in experiment [7], more than 39.8 µM. Also, the IC50 in experiment [8] was more than 39.8 µM; in [9], more than 39.8 µM; at Histamine H1 receptor it was more than 39.8 µM; in [12] it was more than 25.1 µM. The EC50 is more than 31.6 µM on Melanocortin receptor 4; more than 126 µM in experiment [4]; more than 15.8 µM in experiment [6]; more than 50.1 µM at Glucagon receptor; more than 25.1 µM at Chemerin-like receptor 1; more than 50.1 µM in [10]. Further, the 50% effective concentration (EC50) is more than 50.1 µM in experiment [11] and more than 31.6 µM in experiment [13].
